Several values for one entry are separate records, joined by “and”; a condition that tells them apart may be missing. Equal entries are not always repeated. Where two headings read alike, the source gives them in different places.
Key:
MT1-MMP hemopexin domain = molecular target: T1, MT1-MMP hemopexin domain (Homo sapiens, UniProt P50281); test: Fluorescence polarisation competition binding assay; settings: human MT1-MMP
T1 construct: residues Cys319-Gly511 from the human gene; His6 (N); made in house; host or cells: HEK293 cells (transient, pEXPR-IBA42 vector)
From the text: The MT1-MMP hemopexin-like repeats (also known as the MT1-MMP hemopexin domain), residues Cys319-Gly511 from the human gene, were transiently expressed in HEK293 cells as secreted N-terminally His6-tagged soluble protein, using the pEXPR-IBA42 (IBA) expression vector. Following expression, the protein was purified by Nickel-NTA affinity chromatography followed by gel filtration, and purity was checked by SDS-PAGE. Batch to batch variability was also monitored by fluorescence thermal shift experiments in the presence/absence of a hemopexin domain binding bicycle.
(§1) Binding affinity was measured using competition assays using Fluorescence Polarisation (anisotropy).
Fluoresceination may be performed on the N-terminal amino group of the peptide, which is separated from the bicycle core sequence by a sarcosine spacer (usually Sar5). This can be done during Fmoc solid phase synthesis or post-synthetically (after cyclisation with TBMB and purification) if the N-terminal amino group is unique to the peptide. Fluoresceination can also be performed on the C-terminus, usually on a Lysine introduced as the first C-terminal residue, which is then separated from the bicycle core sequence by a sarcosine spacer (usually Sar6). Thus, N-terminal tracers can have a molecular format described as Fluo-Gly-Sar5-A(BicycleCoreSequence), and (BicycleCoreSequence)-A-Sar6-K(Fluo) for a C-terminally fluoresceinated construct. Fluorescent tracers used in the Examples are A-(17-69)-A-Sar6-K(Fluo), A-(17-69-07)-A-Sar6-K(Fluo), and A-(17-69-12)-A-Sar6-K(Fluo).
(§2) Here, a pre-formed complex of PEX with the fluorescent PEX-binding tracer is titrated with free, non-fluoresceinated bicyclic peptide. Since all 17-69-based peptides are expected to bind at the same site, the titrant will displace the fluorescent tracer from PEX. Dissociation of the complex can be measured quantitatively, and the Kd of the competitor (titrant) to the target protein determined. The advantage of the competition method is that the affinities of non-fluoresceinated bicyclic peptides can be determined accurately and rapidly.
(§3) Subsequently, the non-fluorescent competitor bicyclic peptide (usually just the bicycle core sequence) is titrated, such that it displaces the fluorescent tracer from the target protein. The displacement of the tracer is measured and associated with a drop in fluorescence polarisation. The drop in fluorescence polarisation is proportional to the fraction of target protein bound with the non-fluorescent titrant, and thus is a measure of the affinity of titrant to target protein.
(§4) The raw data is fit to the analytical solution of the cubic equation that describes the equilibria between fluorescent tracer, titrant, and binding protein. The fit requires the value of the affinity of fluorescent tracer to the target protein, which can be determined separately by direct binding FP experiments (see previous section).

MT1-MMP = MT1-MMP (Homo sapiens, UniProt P50281); test: SPR binding; settings: read-out: Binding Affinity Kd (SPR)
rat/mouse MT1-MMP = rat/mouse MT1-MMP (Mus musculus, UniProt P53690); test: Binding affinity to rat/mouse MT1-MMP, measured as previously described; settings: Binding Affinity (Ki in nM) rat/mouse ki, bicycle peptide-drug conjugates, two values given
Experimental: as §1, §2, §3
as §4, with “section). The curve fitting was performed using Sigmaplot 12.0 and used an adapted version of the equation described by Zhi-Xin Wang (FEBS Letters 360 (1995) 111-114).” for “section).”
The in vitro binding affinities of the bicycle peptide-drug conjugates prepared above were measured for MT1-MMP as previously described herein.

HT1080 tumor cells = test: In vivo efficacy against HT1080 tumors in BALB/c nude mice; settings: biw dosing, BALB/c nude mice with HT1080 tumors
Experimental: HT1080 tumor cells were maintained in vitro as a monolayer culture in EMEM medium supplemented with 10% heat inactivated fetal bovine serum at 37 C in an atmosphere of 5% CO2 and air. The tumor cells were routinely subcultured twice weekly by trypsin-EDTA treatment. The cells growing in an exponential growth phase were harvested and counted for tumor inoculation.
BALB/c nude mice were inoculated subcutaneously at the right flank with HT1080 tumor cells […] in 0.2 ml of PBS for tumor development. 39 animals were randomized when the average tumor volume reached […].
The BDC compounds were formulated at 0.03 mg/ml in a vehicle buffer containing 25 mM histidine and 10% Sucrose. The formulations were administered twice weekly (biw) at 0.3, 1, 3 and 10 mg/kg. Tumor volume and body weight were measured up to 14 days from the first dosing.

Structure (SMILES) | Ki (MT1-MMP hemopexin domain; bicycle peptides, read-out: Binding Affinity Ki (h)) [nM] | Kd (MT1-MMP) [nM] | Ki (MT1-MMP hemopexin domain; Binding Affinity (Ki in nM) Human ki, bicycle peptide-drug conjugates, two values given) | Ki (rat/mouse MT1-MMP) | tolerated dose (HT1080 tumor cells)
C#CCCC(=O)NCCC(=O)N(C)CC(=O)N(C)CC(=O)N(C)CC(=O)N(C)CC(=O)N(C)CC(=O)N(C)CC(=O)N(C)CC(=O)N(C)CC(=O)N(C)CC(=O)N(C)CC(=O)N[C@@H](C)C(=O)N[C@H]1CN(C)Cc2cc3cc(c2)CN(C)C[C@@H](C(N)=O)NC(=O)[C@H](C(C)(C)C)NC(=O)[C@H](CC(=O)O)NC(=O)[C@H](Cc2ccc(O)cc2)NC(=O)[C@H](Cc2ccccc2)NC(=O)[C@H](CC(=O)O)NC(=O)[C@H](CCC(=O)O)NC(=O)[C@H](CSC3)NC(=O)[C@@H](C)NC(=O)[C@H](Cc2cccc3ccccc23)NC(=O)[C@H](CCC(=O)O)NC(=O)[C@H](CC(N)=O)NC(=O)[C@@H](C)NC1=O [17-69-07-N450, (PYA)-(B-Ala)-Sar10-A(Dap(Me))(D-Ala)NE(1Nal)(D-Ala)CEDFYD(tBuGly)(Dap(Me))] | 3.7 | 1.91 |  |  | 
CC[C@H](C)[C@@H]([C@@H](CC(=O)N1CCC[C@H]1[C@H](OC)[C@@H](C)C(=O)N[C@H](C)[C@@H](O)c1ccccc1)OC)N(C)C(=O)[C@@H](NC(=O)[C@H](C(C)C)N(C)C(=O)OCc1ccc(NC(=O)[C@H](CCCNC(N)=O)NC(=O)[C@@H](NC(=O)Cn2cc(CCC(=O)N[C@@H](C)C(=O)N[C@H]3CNCc4cc5cc(c4)CSC[C@H](NC(=O)[C@@H](C)NC(=O)[C@H](Cc4cccc6ccccc46)NC(=O)[C@H](CCC(=O)O)NC(=O)[C@H](CC(N)=O)NC(=O)[C@@H](C)NC3=O)C(=O)N[C@@H](CCC(=O)O)C(=O)N[C@@H](CC(=O)O)C(=O)N[C@@H](Cc3ccccc3)C(=O)N[C@@H](Cc3ccc(O)cc3)C(=O)N[C@@H](CC(=O)O)C(=O)N[C@@H](C(C)(C)C)C(=O)N[C@H](C(N)=O)CNC5)nn2)C(C)C)cc1)C(C)C [BT17BDC-59] |  |  | 2.8 nM and 2.7 nM | 1.8 nM and 1.7 nM | up to 3 mg/kg

Source: patent US11730819B2, “Peptide derivatives having novel linkage structures” (priority 2016, dated 2023)
